Source: ChEMBL document CHEMBL5257082, “Bacterial GTPases as druggable targets to tackle antimicrobial resistance” (Bioorg Med Chem Lett, 2023)
pIC50: −log10 of the molar value. Converted amounts (≈) assume the structure as drawn.

How the values were obtained:
Staphylococcus aureus [1] = assay: Antibacterial activity against Staphylococcus aureus; format: functional
Escherichia coli = assay: Antibacterial activity against Escherichia coli; format: functional
Staphylococcus aureus [2] = assay: Antibacterial activity against vancomycin-resistant Staphylococcus aureus; format: functional
[3] = Intrinsic clearance in BALB/c mouse at 24 mg/kg, iv; format: ADME, organism-based; details: in vivo
Staphylococcus aureus [4] = assay: Antibacterial activity against methicillin-resistant Staphylococcus aureus; format: functional
Staphylococcus aureus [5] = assay: Antibacterial activity against linezolid-nonsusceptible Staphylococcus aureus; format: functional
Streptococcus pneumoniae = assay: Antibacterial activity against Streptococcus pneumoniae; format: functional
[6] = biological target: T1, Cell division protein FtsZ (Staphylococcus aureus, UniProt P0A031); assay: Inhibition of Staphylococcus aureus FTsZ GTPase activity
T1 sequence (P0A031 whole entry): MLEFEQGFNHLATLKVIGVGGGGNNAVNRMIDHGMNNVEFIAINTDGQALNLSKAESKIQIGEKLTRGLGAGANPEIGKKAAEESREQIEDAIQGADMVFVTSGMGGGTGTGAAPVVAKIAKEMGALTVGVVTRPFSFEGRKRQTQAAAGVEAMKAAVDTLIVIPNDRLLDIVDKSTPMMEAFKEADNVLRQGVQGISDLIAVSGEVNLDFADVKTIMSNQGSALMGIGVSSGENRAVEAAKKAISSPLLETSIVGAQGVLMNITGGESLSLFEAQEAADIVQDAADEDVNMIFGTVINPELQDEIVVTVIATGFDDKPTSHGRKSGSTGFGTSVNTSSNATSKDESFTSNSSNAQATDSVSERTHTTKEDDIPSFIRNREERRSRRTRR

Enterococcus faecalis = assay: Antibacterial activity against Enterococcus faecalis; format: functional
Streptococcus pyogenes = assay: Antibacterial activity against Streptococcus pyogenes; format: functional
Bacillus subtilis = assay: Antibacterial activity against Bacillus subtilis; format: functional
Neisseria gonorrhoeae = assay: Antibacterial activity against Neisseria gonorrhoeae; format: functional
Haemophilus influenzae = assay: Antibacterial activity against Haemophilus influenzae; format: functional
Enterococcus faecium = assay: Antibacterial activity against Enterococcus faecium; format: functional
Pseudomonas aeruginosa = assay: Antibacterial activity against Pseudomonas aeruginosa; format: functional
Acinetobacter baumannii = assay: Antibacterial activity against Acinetobacter baumannii; format: functional
Klebsiella pneumoniae = assay: Antibacterial activity against Klebsiella pneumoniae; format: functional
Micrococcus luteus = assay: Antibacterial activity against Micrococcus luteus; format: functional
Neisseria meningitidis = assay: Antibacterial activity against Neisseria meningitidis; format: functional

| Compound | MIC (Staphylococcus aureus [1]) | MIC (Escherichia coli) | MIC (Staphylococcus aureus [4]) | MIC (Enterococcus faecalis) | also measured |
| --- | --- | --- | --- | --- | --- |
| CN1CCC(C(=O)NC(=O)c2c(F)ccc(OCc3nc4cc(C(F)(F)F)cnc4s3)c2F)CC1 | – | – | 2 mg/L (≈ 3.89 µM) | – | MIC (Staphylococcus aureus [2]): 2 mg/L (≈ 3.89 µM); CL [3]: 0.564 L/h/kg; MIC (Staphylococcus aureus [5]): 2 mg/L (≈ 3.89 µM) |
| NC(=O)c1c(F)ccc(OCc2nc3cc(Cl)cnc3s2)c1F | – | > 64 mg/L | 1 mg/L (≈ 2.81 µM) | > 64 mg/L | MIC (Streptococcus pneumoniae): > 64 mg/L; pIC50 [6]: 6.82; CL [3]: 3.307 L/h/kg; MIC (Streptococcus pyogenes): > 64 mg/L; MIC (Bacillus subtilis): 1 mg/L (≈ 2.81 µM) |
| COc1ccc(/C=C(\C#N)C(=O)Nc2cccc(C(=O)O)c2)cc1OC(=O)c1cccc2ccccc12 | > 50 mg/L | > 200 mg/L | – | – | – |
| C/C=C\C=C\[C@@H]1C[C@](O)([C@H](CC)C(=O)NC/C=C/C=C(\C)[C@H](OC)[C@H](C)C2O[C@H](/C=C/C=C/C=C(\C)C(=O)c3c(O)cc[nH]c3=O)[C@H](O)[C@@H]2O)[C@H](O)[C@H](O)C1(C)C (some centres undefined) | > 32 mg/L | > 128 mg/L | – | > 32 mg/L | MIC (Neisseria gonorrhoeae): 0.06 mg/L (≈ 0.0755 µM); MIC (Haemophilus influenzae): 4 mg/L (≈ 5.03 µM); MIC (Enterococcus faecium): 2 mg/L (≈ 2.52 µM) |
| CO[C@@H]1[C@H](O)[C@@H](OC)[C@H](O[C@@H](C)[C@@H](O)/C=C/C=C/C=C/C(=O)[C@@H](C)[C@@H](O)[C@H](C)C2C/C=C/C=C/C=C/[C@H](O)C(=O)/C(C)=C/C=C/C(C)=C/[C@@H](O)/C(C)=C/CC(=O)O2)O[C@@H]1C (some centres undefined) | 2 mg/L (≈ 2.38 µM) | 32 mg/L (≈ 38.1 µM) | – | 32 mg/L (≈ 38.1 µM) | MIC (Pseudomonas aeruginosa): 32 mg/L (≈ 38.1 µM); MIC (Acinetobacter baumannii): 32 mg/L (≈ 38.1 µM); MIC (Klebsiella pneumoniae): > 128 mg/L |
| CC(=O)O[C@H]1C[C@@]2(C)[C@@H](C[C@@H](O)[C@H]3[C@@]4(C)CC[C@@H](O)[C@@H](C)[C@@H]4CC[C@@]32C)/C1=C(\CCC=C(C)C)C(=O)O [FUSIDIC ACID] | – | > 32 mg/L | 0.25 mg/L (≈ 0.484 µM) | 2 mg/L (≈ 3.87 µM) | MIC (Micrococcus luteus): 0.5 mg/L (≈ 0.968 µM); MIC (Neisseria meningitidis): 0.25 mg/L (≈ 0.484 µM); MIC (Streptococcus pyogenes): 16 mg/L (≈ 31 µM) |

Second part, led by results:

| MIC (Staphylococcus aureus [1]) | MIC (Escherichia coli) | Compound | MIC (Staphylococcus aureus [4]) | MIC (Enterococcus faecalis) | also measured |
| --- | --- | --- | --- | --- | --- |
| > 25 mg/L | > 200 mg/L | Cc1cc(Cl)ccc1OC(C)C(=O)Nc1ccc(C(=O)Nc2ccccc2C(=O)O)cc1 (centres undefined) | – | – | – |
| > 50 mg/L | > 200 mg/L | O=C(O)c1[nH]c2ccc(Cl)cc2c1CC(=O)N1CCN(c2ccc(C(F)(F)F)cc2)CC1 | – | – | – |
| 2 mg/L (≈ 2.85 µM) | – | CC/C=C/[C@@H](OC(N)=O)[C@@H](Cl)[C@H](O)CC(=O)[C@@H](O)[C@H](O)C(C)/C(Cl)=C/C=C/C=C(C)/C=C/C=C/C(=O)O[C@@H]1CC(C(=O)O)CC[C@@H]1O (some centres undefined) | – | – | MIC (Pseudomonas aeruginosa): > 32 mg/L; MIC (Acinetobacter baumannii): > 32 mg/L |
